Experiments:
KB cells = assay: Multicellular spheroid model, doxorubicin toxicity by BCECF labeling; assay type: cell-based; conditions: doxorubicin 1 μM
Protocol: Multicellular spheroid model: A multicellular spheroid model was developed using KB cells grown at high density of membrane permeable supports. Briefly, KB cells in suspension were plated at high density (˜10^7 cells/cm^2) on 0.33 cm^2 collagen-coated permeable supports (Corning-Costar, Cambridge, Ma.) and allowed to grow as domes on these substrates for two weeks. Media was replaced every other day and at two weeks, multicellular spheroids were subjected to a 24 or 48 hr period of hypoxia or normoxia, in the presence or absence of the P-glycoprotein substrate doxorubicin (1 μM final concentration) (Sigma, St Louis, Mo.). At the termination of the experiment, the number of viable, intact cells was determined by measurement of the amount of esterase cleavable fluorescent marker 2′7′-bis(carboxyethyl)-5(6)-carboxyfluorescein pentaacetoxymethyl ester (BCECF-AM, 5 μM final concentration Calbiochem, San Diego, Calif.) retained over a 30 min period, a sensitive measurement cytoxicity) (Wierda et al., J. Immunol. […] Multicellular spheroids were washed three times in HBSS and fluorescence intensity was measured on a fluorescent plate reader. […]

SUMO-1 = target: T1, SUMO-1 (Homo sapiens, UniProt P63165); assay: sumo-1 antisense oligonucleotides, induction of HIF-1 in hypoxia; assay type: cell-based
T1 construct: endogenous in cells
Excerpt: Posttranslational SUMOlation influences HIF-1α regulated gene expression. In order to test that HIF-1 is SUMO-1 modified, we conducted experiments which indicated an association of HIF-1α both with endogenous as well as epitope (hexahistidine)-tagged SUMO-1 HIF-1α induction was rapid and was detected by immunopecipitating SUMO-1. To further investigate the impact of SUMOlation on HIF-1 conveyed gene expression, we designed antisense oligonucleotides AS31(SEQ ID NO: 22), AS64 (SEQ ID NO: 23), and AS617 (SEQ ID NO: 24) directed against SUMO-1. […] Thus, we were able to modify the HIF-1 conveyed hypoxia adaptive response by administration of sumo-1 antisense oligonucleotides.

mdr1 gene = assay: Genechip expression array screen of epithelial cells for mdr1 induction; assay type: cell-based, human; conditions: T84 epithelial cells, exposure similar to hypoxia (6 and 18 hrs)
Protocol: Analysis of messenger RNA levels by RT-PCR: The transcriptional profile of epithelial cells exposed to ambient hypoxia was assessed in RNA derived from control or hypoxic epithelia (T84 cells at 6 or 18 hr hypoxia) using quantitative genechip expression arrays (Affymetrix, Inc., Santa Clara, Calif.) (Lockhart et al., Nat. Biotechnol., 14, 1675–1680, 1996). RT-PCR analysis of mRNA levels was performed using DNAse treated total RNA as previously described (Taylor et al., J. Biol. Chem., 274, 19447–19450, 1999) using primers specific for mdr1 (forward primer 5′-AACGGAAGCCAGAACATTCC-3′ (SEQ ID NO: 37) and reverse primer 5′-AGGCTTCCTGTGGCAAAGAG-3′ (SEQ ID NO: 38), 180 bp fragment), HIF-1α (forward primer 5′- CTCAAAGTCGGACAGCCTCA-3′ (SEQ ID NO: 39) and reverse primer 5′-CCCTGCAGTAGGTTTCTGCT -3′ (SEQ ID NO: 40), 460 bp fragment) or control β-actin (forward primer 5′-ATGACTTCCAAGCTGGCCGTGGCT-3′ (SEQ ID NO: 41) and antisense primer 5′-TCTCAGCCCTCTTCAAAAACTTCTC-3′ (SEQ ID NO: 42), 661 bp fragment). Each primer set was amplified using 25 cycles, unless otherwise noted, of 94° C. for 1 min, 60° C. for 2 min, 72° C. for 4 min, and a final extension of […] for 7 min. The PCR reactions were then visualized on a 1.5% agarose gel containing 5 μg/ml of ethidium bromide. […]

T1 sequence (P63165 1-97 limits assumed): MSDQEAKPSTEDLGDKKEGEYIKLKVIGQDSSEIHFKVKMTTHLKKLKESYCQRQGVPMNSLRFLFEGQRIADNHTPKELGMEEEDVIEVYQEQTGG

Molecule	induction of HIF-1 in hypoxia (SUMO-1)	further results
COc1cccc2c1C(=O)c1c(O)c3c(c(O)c1C2=O)C[C@@](O)(C(=O)CO)C[C@@H]3O[C@H]1C[C@H](N)[C@H](O)[C@H](C)O1 [doxorubicin]	–	degree of cell death (number of intact cells, BCECF labeling) (KB cells; 24 hr hypoxia vs normoxia, p<0.01): significantly decreased; degree of cell death (number of intact cells, BCECF labeling) (KB cells; 48 hr hypoxia vs normoxia, p<0.001): significantly decreased
AS31: antisense oligonucleotide directed against SUMO-1 (antisense CACAGCAGCGGCCTCGGGTA; chemistry not given here)	able to modify the induction of HIF-1 in hypoxia	–
AS64: antisense oligonucleotide directed against SUMO-1 (antisense CATGATGACGGTGGCTTCAC; listed as DNA, chemistry not given here)	able to modify the induction of HIF-1 in hypoxia	–
AS617: antisense oligonucleotide directed against SUMO-1 (antisense GTGACCTCTCTGTGCACACG; listed as DNA, chemistry not given here)	able to modify the induction of HIF-1 in hypoxia	–
IFN-γ: proinflammatory cytokine (protein, UniProt P01579 24-161, looked up) Interferon gamma: QDPYVKEAENLKKYFNAGHSDVADNGTLFLGILKNWKEESDRKIMQSQIVSFYFKLFKNFKDDQSIQKSVETIKEDMNVKFFNSNKKKRDDFEKLTNYSVTDLNVQRKAIHELIQVMAELSPAAKTGKRKRSQMLFRG	–	induction of mdr1 (mdr1 gene): did not induce mdr1
